# Assay results taken from ChEMBL document CHEMBL1133200, “Nonpeptide endothelin antagonists: from lower affinity pyrazol-5-ols to higher affinity pyrazole-5-carboxylic acids” (Bioorg Med Chem Lett, 2000).
# Assays:
# [1] = target: T1, Endothelin-1 receptor (Rattus norvegicus, UniProt P26684); experiment: In vitro inhibition of endothelin binding to endothelin A receptor in rat heart ventricles was measured using a 125-I labelled ET-1 competition assay
# T1 sequence (P26684 whole entry): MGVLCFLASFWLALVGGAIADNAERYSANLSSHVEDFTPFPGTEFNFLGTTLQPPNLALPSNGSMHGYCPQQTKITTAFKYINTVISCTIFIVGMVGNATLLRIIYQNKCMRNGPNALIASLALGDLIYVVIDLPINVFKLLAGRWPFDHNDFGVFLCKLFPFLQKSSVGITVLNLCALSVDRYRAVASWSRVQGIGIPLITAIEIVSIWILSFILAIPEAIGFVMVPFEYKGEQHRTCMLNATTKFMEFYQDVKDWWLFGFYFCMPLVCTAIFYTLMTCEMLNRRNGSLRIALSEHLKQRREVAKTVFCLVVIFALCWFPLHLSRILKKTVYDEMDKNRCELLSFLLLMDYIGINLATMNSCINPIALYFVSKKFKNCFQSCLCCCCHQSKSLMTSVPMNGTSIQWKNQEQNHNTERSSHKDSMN
# [2] = target: T2, Endothelin receptor type B (Rattus norvegicus, UniProt P21451); experiment: In vitro inhibition of [125-I] labelled ET-1 endothelin binding to Endothelin B receptor in rat cerebellum; type: tissue-based
# T2 sequence (P21451 whole entry): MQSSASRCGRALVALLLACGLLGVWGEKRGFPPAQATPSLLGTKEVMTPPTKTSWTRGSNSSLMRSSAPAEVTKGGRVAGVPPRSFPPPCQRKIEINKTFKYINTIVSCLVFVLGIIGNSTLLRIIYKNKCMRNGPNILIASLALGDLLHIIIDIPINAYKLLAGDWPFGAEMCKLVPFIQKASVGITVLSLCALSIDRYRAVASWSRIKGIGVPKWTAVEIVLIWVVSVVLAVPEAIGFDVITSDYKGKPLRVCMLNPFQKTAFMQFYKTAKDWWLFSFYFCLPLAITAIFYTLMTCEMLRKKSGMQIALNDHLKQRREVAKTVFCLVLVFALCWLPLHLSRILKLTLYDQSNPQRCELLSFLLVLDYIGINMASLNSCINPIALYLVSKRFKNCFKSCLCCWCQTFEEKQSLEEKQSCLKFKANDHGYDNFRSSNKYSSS
# [3] = target: T1, Endothelin-1 receptor; experiment: In vitro inhibition of endothelin binding to Endothelin A receptor in rat heart ventricles was measured using 125-I labelled ET-1 competition assay; No measurable affinity
# [4] = target: T2, Endothelin receptor type B; experiment: In vitro inhibition of endothelin binding to Endothelin B receptor in rat cerebellum was measured using 125-I labelled ET-1 competition assay; No measurable affinity; type: tissue-based
# [5] = pKa was determined in ethanol:water (1:1) system; type: physicochemical
Structure (SMILES),IC50 [1] [µM],IC50 [2] [µM],IC50 [3],IC50 [4],pKa [5]
COc1cccc(Cn2nc(-c3ccccc3)c(Cc3cc4c(cc3Cl)OCO4)c2C(=O)O)c1,0.018,0.034,–,–,–
COc1cccc(Cn2nc(C(F)(F)F)c(Cc3ccc4c(c3)OCO4)c2OCC(=O)O)c1,0.45,2.2,–,–,–
COc1cccc(Cn2nc(-c3ccccc3)c(Cc3ccc4c(c3)OCO4)c2C(=O)O)c1,0.028,0.04,–,–,–
COc1cccc(Cn2nc(C(F)(F)F)c(Cc3ccc4c(c3)OCO4)c2OCCO)c1,40,> 25,–,–,–
CCOC(=O)COc1c(Cc2ccc3c(c2)OCO3)c(C(F)(F)F)nn1Cc1cccc(OC)c1,–,–,Not Active,Not Active,–
COc1cccc(Cn2nc(C(F)(F)F)c(Cc3ccc4c(c3)OCO4)c2OC)c1,–,–,Not Active,Not Active,6
O=c1c(Cc2ccc3c(c2)OCO3)c(C(F)(F)F)[nH]n1Cc1ccccc1Cl,3.8,25,–,–,–
COc1cccc(Cn2[nH]c(C(F)(F)F)c(Cc3cc(OC)c(OC)c(OC)c3)c2=O)c1,–,–,Not Active,Not Active,–
O=c1c(Cc2ccc3c(c2)OCO3)c(C(F)(F)F)[nH]n1Cc1ccc2c(c1)OCO2,5.6,17,–,–,–
COc1cccc(Cn2[nH]c(C(F)(F)F)c(Cc3ccc(F)cc3)c2=O)c1,40,–,–,Not Active,–
COc1cccc(Cn2[nH]c(C(F)(F)F)c(Cc3ccc(Cl)cc3)c2=O)c1,4.3,22,–,–,–
COc1ccc(Cc2[nH]n(Cc3cccc(OC)c3)c(=O)c2Cc2ccc3c(c2)OCO3)cc1,7.5,24,–,–,–
COc1ccccc1Cn1[nH]c(C(F)(F)F)c(Cc2ccc3c(c2)OCO3)c1=O,1.8,33,–,–,–
COc1cccc(Cn2[nH]c(C(F)(F)F)c(Cc3ccc(OC)c(OC)c3)c2=O)c1,–,–,Not Active,Not Active,–
COc1cccc(Cn2[nH]c(-c3ccccc3)c(Cc3ccc4c(c3)OCO4)c2=O)c1,0.42,3.2,–,–,–
COc1ccc(Cn2[nH]c(C(F)(F)F)c(Cc3ccc4c(c3)OCO4)c2=O)c(OCC(=O)O)c1,3.8,12,–,–,–
COc1ccc(Cc2c(C(F)(F)F)[nH]n(Cc3cccc(OC)c3)c2=O)cc1,48,39,–,–,–
COc1cccc(Cn2[nH]c(C(F)(F)F)c(Cc3ccc(Cl)c(Cl)c3)c2=O)c1,10,8.4,–,–,–
COc1cccc(Cn2[nH]c(C(F)(F)F)c(Cc3ccccc3)c2=O)c1,98,–,–,Not Active,–
COc1cccc(Cn2[nH]c(-c3ccc([N+](=O)[O-])cc3)c(Cc3ccc4c(c3)OCO4)c2=O)c1,3.1,15,–,–,–
COc1cccc(Cn2nc(C(F)(F)F)c(Cc3ccc4c(c3)OCO4)c2OCCCC(=O)O)c1,64,–,–,Not Active,–

# The remaining lines, values ahead:
IC50 [1] [µM],IC50 [2] [µM],IC50 [3],IC50 [4],pKa [5],Structure (SMILES)
–,11,–,–,–,COc1cccc(Cn2[nH]c(C(F)(F)F)c(Cc3ccc4c(c3)OCO4)c2=O)c1
0.6,2.4,–,–,–,COc1cccc(Cn2[nH]c(C(F)(F)F)c(Cc3cc4c(cc3Cl)OCO4)c2=O)c1
1.7,36,–,–,–,O=c1c(Cc2ccc3c(c2)OCO3)c(C(F)(F)F)[nH]n1Cc1cccc(O)c1
0.14,1,–,–,–,COc1cccc(Cn2[nH]c(C(F)(F)C(F)(F)C(F)(F)F)c(Cc3ccc4c(c3)OCO4)c2=O)c1
1.3,5.4,–,–,–,COc1cccc(Cn2[nH]c(C(F)(F)F)c(Cc3cc(Cl)c4c(c3)OCO4)c2=O)c1
0.11,3.3,–,–,–,COc1cccc(Cn2[nH]c(C(F)(F)C(F)(F)F)c(Cc3ccc4c(c3)OCO4)c2=O)c1
2.1,9.2,–,–,–,COc1ccc(Cn2[nH]c(C(F)(F)F)c(Cc3ccc4c(c3)OCO4)c2=O)cc1
3.5,29,–,–,–,O=C(O)COc1cccc(Cn2[nH]c(C(F)(F)F)c(Cc3ccc4c(c3)OCO4)c2=O)c1
1.9,14,–,–,–,O=c1c(Cc2ccc3c(c2)OCO3)c(C(F)(F)F)[nH]n1Cc1cccc(Cl)c1
10,24,–,–,–,O=c1c(Cc2ccc3c(c2)OCO3)c(C(F)(F)F)[nH]n1Cc1ccccc1
20,–,–,Not Active,–,COc1cccc(Cn2[nH]c(C)c(Cc3ccc4c(c3)OCO4)c2=O)c1
